The results in this text go back to patent US20060148878A1, “Pseudopolymorphic forms of carvedilol” (priority 2001, published 2006).

The nature of data set [1]: resorption after peroral administration of rapid release carvedilol formulations. In kind it is in vivo. The following applies: e.g. the commercial formulation. From the text:
In the case of the peroral administration of rapid release carvedilol formulations, e.g. the commercial formulation, resorption quotas of up to 80% are achieved, with a considerable part of the resorbed carvedilol being very rapidly metabolized.

Data set [2] is described as follows: investigations into the gastrointestinal resorption of carvedilol. The following applies: compared with resorption in the stomach. It is filed as in vivo.
Data set [3] is described as follows: dissolution in molten polyethylene glycol 6,000. In kind it is physicochemical. The following applies: polyethylene glycol 6,000 melted at about 70° C.; carvedilol form I, II or IV dissolved. As to the method: Thus, carvedilol form I, II or IV can be dissolved in polyethylene glycol 6,000 which is melted at about 70° C. […] Further, the compositions in accordance with the invention can contain highly dispersed silicon dioxide as an anti-caking agent.

For data set [4] the following is noted: pH 1.
Data set [5] in a line: active substance resorption / bioavailability of compositions containing carvedilol form IV. In kind it is in vivo. The following applies: compositions with selected adjuvants, compared with formulations which contain carvedilol forms I or II.

Molecules are shown by their SMILES.

`COc1ccccc1OCCNCC(O)COc1cccc2[nH]c3ccccc3c12` (racemic) [carvedilol, (±)1-(4-carbazolyloxy)-3-[2-(2-methoxyphenoxy)ethylamino]-2-propanole]: the resorption quota result in data set [1] was “up to 80%”. Moreover, in data set [2], the “resorption in the ileum and colon” value is listed as “only a fraction of the resorption in the stomach”. Also, the “concentration of carvedilol obtained in polyethylene glycol 6,000” value in data set [3] was “up to 500 mg/ml”. Further, in data set [4], the “solubility in aqueous media” value is 1 mg and 100; the “solubility in the strongly acidic region” value is reported as “very low solubility”.
For the compound `COc1ccccc1OCCNCC(O)COc1cccc2[nH]c3ccccc3c12` (racemic) [carvedilol form IV, (±)1-(4-carbazolyloxy)-3-[2-(2-methoxyphenoxy)ethylamino]-2-propanole], in data set [5], the bioavailability result was “improved bioavailability”.
